15 molecules from patent US20250163104A1, “MACROCYCLIC IMMUNOMODULATORS” (priority 2021, published 2025) can be followed below.

Structures are written as SMILES. Where a SMILES comes first, the peptide text is derived from it. Bridges are numbered along the chain shown (N, C = ends). [ ]: non-standard residue; d: D form. The star is where a group is joined. Bip = N[C@@H](Cc1ccc(-c2ccccc2)cc1)C(=O)O; Cha = N[C@@H](CC1CCCCC1)C(=O)O; Cit = NC(=O)NCCC[C@H](N)C(=O)O; Carboxymethyl = O=C(O)C*; Nle = CCCC[C@H](N)C(=O)O; Orn = NCCC[C@H](N)C(=O)O; Dab = NCC[C@H](N)C(=O)O; Dap = NC[C@H](N)C(=O)O

For orientation: IC50 means the concentration that inhibits the measured activity by half.

T1 sequence (Q15116 25-288): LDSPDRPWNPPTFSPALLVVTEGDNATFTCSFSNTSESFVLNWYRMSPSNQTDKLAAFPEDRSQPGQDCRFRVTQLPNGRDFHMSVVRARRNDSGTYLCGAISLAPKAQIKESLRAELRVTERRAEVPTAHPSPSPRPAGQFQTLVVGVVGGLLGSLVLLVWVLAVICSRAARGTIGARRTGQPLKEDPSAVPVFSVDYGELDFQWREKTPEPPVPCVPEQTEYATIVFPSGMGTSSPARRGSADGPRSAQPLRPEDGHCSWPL

The assay concerns the target T1, human PD-1 / PD-L1-Ig binding on Jurkat cell line over-expressing human PD-1 (Jurkat-PD-1) (Homo sapiens, UniProt Q15116).
T1 construct: expressed in transfected cells; host or cells: Jurkat
Description: Jurkat-PD-1 Cell Binding High-Content Screening Assay (CBA). The format is cell-based. As to conditions: Jurkat-PD-1 cells, PE-labeled PD-L1-Ig 20 nM final; read-out: Jurkat HPD1_PDL1 IC50. The method in brief:
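PE-PD-L1-Ig 20 nM final; cells in DMEM/10% FCS; cpd pre-incubation 2 h, 37° C; ligand 1 h; PFA fix + Hoechst 33342; high-content imaging read-out.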
Turning to `CCCC[C@@H]1NC(=O)[C@H](CCN)NC(=O)[C@@H](CC(C)C)NC(=O)[C@H](CCCN)NC(=O)[C@H]([C@@H](C)CC)NC(=O)[C@H](Cc2ccc(-c3ccccc3)cc2)NC(=O)[C@H](C(C)C)NC(=O)[C@H](Cc2c[nH]c3ccccc23)NC(=O)[C@H](CC(=O)O)NC(=O)[C@H](Cc2ccc(O)cc2)NC(=O)[C@H](CN)NC(=O)CSC[C@@H](C(=O)N[C@@H](C)C(N)=O)NC(=O)[C@H]([C@@H](C)O)NC(=O)[C@H](C(C)C)NC1=O` [Compound 1160] ({CH2CO}-[Dap]YDWV[Bip]I[Orn][dL][Dab][Nle]VTCA-NH2; thioether N-14), the IC50 is 31.3 nM.
For the molecule `CC(C)C[C@H]1NC(=O)[C@H](CCCN)NC(=O)[C@H](CCCNC(N)=O)NC(=O)[C@H](Cc2ccc(-c3ccccc3)cc2)NC(=O)[C@H](C(C)C)NC(=O)[C@H](Cc2c[nH]c3ccccc23)NC(=O)[C@H](CC(=O)O)NC(=O)[C@H](Cc2ccc(O)cc2)NC(=O)[C@H](CC(N)=O)NC(=O)CSC[C@@H](C(=O)N[C@@H](C)C(N)=O)NC(=O)[C@H]([C@@H](C)O)NC(=O)[C@H](C(C)C)NC(=O)[C@H](CC2CCCCC2)NC(=O)[C@H](CCN)NC1=O` [Compound 1161] ({CH2CO}-NYDWV[Bip][Cit][Orn][dL][Dab][Cha]VTCA-NH2; thioether N-14), the IC50 was 16.1 nM.
Regarding `CCCC[C@@H]1NC(=O)[C@H](CCN)NC(=O)[C@@H](CC(C)C)NC(=O)[C@H](CCCN)NC(=O)[C@H](CCCNC(N)=O)NC(=O)[C@H](Cc2ccc(-c3ccccc3)cc2)NC(=O)[C@H](C(C)C)NC(=O)[C@H](Cc2c[nH]c3ccccc23)NC(=O)[C@H](CC(=O)O)NC(=O)[C@H](Cc2ccc(O)cc2)NC(=O)[C@H](CC(N)=O)NC(=O)CSC[C@@H](C(=O)N[C@@H](C)C(N)=O)NC(=O)[C@H]([C@@H](C)O)NC(=O)[C@H](C(C)C)NC1=O` [Compound 1162] ({CH2CO}-NYDWV[Bip][Cit][Orn][dL][Dab][Nle]VTCA-NH2; thioether N-14), the IC50 was determined as 327 nM.
The figure for `CC[C@H](C)[C@@H]1NC(=O)[C@H](Cc2ccc(-c3ccccc3)cc2)NC(=O)[C@H](C(C)C)NC(=O)[C@H](Cc2c[nH]c3ccccc23)NC(=O)[C@H](CC(=O)O)NC(=O)[C@H](Cc2ccc(O)cc2)NC(=O)[C@H](CC(N)=O)NC(=O)CSC[C@@H](C(=O)N[C@@H](C)C(N)=O)NC(=O)[C@H]([C@@H](C)O)NC(=O)[C@H](C(C)C)NC(=O)[C@H](CC2CCCCC2)NC(=O)[C@H](CCN)NC(=O)[C@@H](CC(C)C)NC(=O)[C@H](CCCN)NC1=O` [Compound 1163] ({CH2CO}-NYDWV[Bip]I[Orn][dL][Dab][Cha]VTCA-NH2; thioether N-14) is 26.1 nM; for `CC(C)C[C@H]1NC(=O)[C@H](CCCN)NC(=O)[C@H](CCCNC(N)=O)NC(=O)[C@H](Cc2ccc(-c3ccccc3)cc2)NC(=O)[C@H](C(C)C)NC(=O)[C@H](Cc2c[nH]c3ccccc23)NC(=O)[C@H](CC(=O)O)NC(=O)[C@H](Cc2ccc(O)cc2)NC(=O)[C@H](Cc2ccc(OCC(=O)O)cc2)NC(=O)CSC[C@@H](C(=O)N[C@@H](C)C(N)=O)NC(=O)[C@H]([C@@H](C)O)NC(=O)[C@H](C(C)C)NC(=O)[C@H](CC2CCCCC2)NC(=O)[C@H](CCN)NC1=O` [Compound 1165] it is 14.6 nM; for `CCCC[C@@H]1NC(=O)[C@H](CCN)NC(=O)[C@@H](CC(C)C)NC(=O)[C@H](CCCN)NC(=O)[C@H](CCCNC(N)=O)NC(=O)[C@H](Cc2ccc(-c3ccccc3)cc2)NC(=O)[C@H](C(C)C)NC(=O)[C@H](Cc2c[nH]c3ccccc23)NC(=O)[C@H](CC(=O)O)NC(=O)[C@H](Cc2ccc(O)cc2)NC(=O)[C@H](Cc2ccc(OCC(=O)O)cc2)NC(=O)CSC[C@@H](C(=O)N[C@@H](C)C(N)=O)NC(=O)[C@H]([C@@H](C)O)NC(=O)[C@H](C(C)C)NC1=O` [Compound 1166] ({CH2CO}-Y(Carboxymethyl)YDWV[Bip][Cit][Orn][dL][Dab][Nle]VTCA-NH2; thioether N-14) it is 58.3 nM.
The figure for `CC[C@H](C)[C@@H]1NC(=O)[C@H](Cc2ccc(-c3ccccc3)cc2)NC(=O)[C@H](C(C)C)NC(=O)[C@H](Cc2c[nH]c3ccccc23)NC(=O)[C@H](CC(=O)O)NC(=O)[C@H](Cc2ccc(O)cc2)NC(=O)[C@H](Cc2ccc(OCC(=O)O)cc2)NC(=O)CSC[C@@H](C(=O)N[C@@H](C)C(N)=O)NC(=O)[C@H]([C@@H](C)O)NC(=O)[C@H](C(C)C)NC(=O)[C@H](CC2CCCCC2)NC(=O)[C@H](CCN)NC(=O)[C@@H](CC(C)C)NC(=O)[C@H](CCCN)NC1=O` [Compound 1167] is 17 nM; for `CCCC[C@@H]1NC(=O)[C@H](CCN)NC(=O)[C@@H](CC(C)C)NC(=O)[C@H](CCCN)NC(=O)[C@H]([C@@H](C)CC)NC(=O)[C@H](Cc2ccc(-c3ccccc3)cc2)NC(=O)[C@H](C(C)C)NC(=O)[C@H](Cc2c[nH]c3ccccc23)NC(=O)[C@H](CC(=O)O)NC(=O)[C@H](Cc2ccc(O)cc2)NC(=O)[C@H](Cc2ccc(OCC(=O)O)cc2)NC(=O)CSC[C@@H](C(=O)N[C@@H](C)C(N)=O)NC(=O)[C@H]([C@@H](C)O)NC(=O)[C@H](C(C)C)NC1=O` [Compound 1168] ({CH2CO}-Y(Carboxymethyl)YDWV[Bip]I[Orn][dL][Dab][Nle]VTCA-NH2; thioether N-14) it is 26.3 nM; for `CCCC[C@@H]1NC(=O)[C@H](CCN)NC(=O)[C@@H](CC(C)C)NC(=O)[C@H](CCCN)NC(=O)[C@H](C(C)C)NC(=O)[C@H](Cc2ccc(-c3ccccc3)cc2)NC(=O)[C@H](C(C)C)NC(=O)[C@H](Cc2c[nH]c3ccccc23)NC(=O)[C@H](CC(=O)O)NC(=O)[C@H](Cc2ccc(O)cc2)NC(=O)[C@H](CN)NC(=O)CSC[C@@H](C(=O)N[C@@H](C)C(N)=O)NC(=O)[C@H]([C@@H](C)O)NC(=O)[C@H](C(C)C)NC1=O` [Compound 1169] ({CH2CO}-[Dap]YDWV[Bip]V[Orn][dL][Dab][Nle]VTCA-NH2; thioether N-14) it is 20.7 nM.
Take `CCCC[C@@H]1NC(=O)[C@H](CCN)NC(=O)[C@@H](CC(C)C)NC(=O)[C@H](CCCN)NC(=O)[C@H](C(C)C)NC(=O)[C@H](Cc2ccc(-c3ccccc3)cc2)NC(=O)[C@H](C(C)C)NC(=O)[C@H](Cc2c[nH]c3ccccc23)NC(=O)[C@H](CC(=O)O)NC(=O)[C@H](Cc2ccc(O)cc2)NC(=O)[C@H](Cc2ccc(OCC(=O)O)cc2)NC(=O)CSC[C@@H](C(=O)N[C@@H](C)C(N)=O)NC(=O)[C@H]([C@@H](C)O)NC(=O)[C@H](C(C)C)NC1=O` [Compound 1170] ({CH2CO}-Y(Carboxymethyl)YDWV[Bip]V[Orn][dL][Dab][Nle]VTCA-NH2; thioether N-14): the IC50 worked out at 10.8 nM.
The same measure for `CCCC[C@@H]1NC(=O)[C@H](CCN)NC(=O)[C@@H](CC(C)C)NC(=O)[C@H](CCCN)NC(=O)[C@H](C(C)C)NC(=O)[C@H](Cc2ccc(-c3ccccc3)cc2)NC(=O)[C@H](C(C)C)NC(=O)[C@H](Cc2c[nH]c3ccccc23)NC(=O)[C@H](CC(=O)O)NC(=O)[C@H](Cc2ccc(O)cc2)NC(=O)[C@H](CC(N)=O)NC(=O)CSC[C@@H](C(=O)N[C@@H](C)C(N)=O)NC(=O)[C@H]([C@@H](C)O)NC(=O)[C@H](C(C)C)NC1=O` [Compound 1171] ({CH2CO}-NYDWV[Bip]V[Orn][dL][Dab][Nle]VTCA-NH2; thioether N-14): 26.4 nM; for `CC(C)C[C@H]1NC(=O)[C@H](CCCN)NC(=O)[C@H](C(C)C)NC(=O)[C@H](Cc2ccc(-c3ccccc3)cc2)NC(=O)[C@H](C(C)C)NC(=O)[C@H](Cc2c[nH]c3ccccc23)NC(=O)[C@H](CC(=O)O)NC(=O)[C@H](Cc2ccc(O)cc2)NC(=O)[C@H](CN)NC(=O)CSC[C@@H](C(=O)N[C@@H](C)C(N)=O)NC(=O)[C@H]([C@@H](C)O)NC(=O)[C@H](C(C)C)NC(=O)[C@H](CC2CCCCC2)NC(=O)[C@H](CCN)NC1=O` [Compound 1172]: 6.4 nM; for `CC(C)C[C@H]1NC(=O)[C@H](CCCN)NC(=O)[C@H](C(C)C)NC(=O)[C@H](Cc2ccc(-c3ccccc3)cc2)NC(=O)[C@H](C(C)C)NC(=O)[C@H](Cc2c[nH]c3ccccc23)NC(=O)[C@H](CC(=O)O)NC(=O)[C@H](Cc2ccc(O)cc2)NC(=O)[C@H](Cc2ccc(OCC(=O)O)cc2)NC(=O)CSC[C@@H](C(=O)N[C@@H](C)C(N)=O)NC(=O)[C@H]([C@@H](C)O)NC(=O)[C@H](C(C)C)NC(=O)[C@H](CC2CCCCC2)NC(=O)[C@H](CCN)NC1=O` [Compound 1173]: 9.7 nM.
As to `CCCC[C@@H]1NC(=O)[C@H](CCCNC(=N)N)NC(=O)[C@@H](CC(C)C)NC(=O)[C@H](CCCN)NC(=O)[C@H](CCCNC(N)=O)NC(=O)[C@H](Cc2ccc(-c3ccccc3)cc2)NC(=O)[C@H](C(C)C)NC(=O)[C@H](Cc2c[nH]c3ccccc23)NC(=O)[C@H](CC(=O)O)NC(=O)[C@H](Cc2ccc(O)cc2)NC(=O)[C@H](CN)NC(=O)CSC[C@@H](C(=O)N[C@@H](C)C(N)=O)NC(=O)[C@H]([C@@H](C)O)NC(=O)[C@H](C(C)C)NC1=O` [Compound 1175] ({CH2CO}-[Dap]YDWV[Bip][Cit][Orn][dL]R[Nle]VTCA-NH2; thioether N-14), the IC50 came out at 82 nM.
Take `CCCC[C@@H]1NC(=O)[C@H](CCCNC(=N)N)NC(=O)[C@@H](CC(C)C)NC(=O)[C@H](CCCN)NC(=O)[C@H](CCCNC(N)=O)NC(=O)[C@H](Cc2ccc(-c3ccccc3)cc2)NC(=O)[C@H](C(C)C)NC(=O)[C@H](Cc2c[nH]c3ccccc23)NC(=O)[C@H](CC(=O)O)NC(=O)[C@H](Cc2ccc(O)cc2)NC(=O)[C@H](Cc2ccc(OCC(=O)O)cc2)NC(=O)CSC[C@@H](C(=O)N[C@@H](C)C(N)=O)NC(=O)[C@H]([C@@H](C)O)NC(=O)[C@H](C(C)C)NC1=O` [Compound 1176] ({CH2CO}-Y(Carboxymethyl)YDWV[Bip][Cit][Orn][dL]R[Nle]VTCA-NH2; thioether N-14): the half-maximal inhibitory concentration (IC50) came out at 75.7 nM.
